Consider 1 compound from patent publication US20230121547A1, “A COMBINATION THERAPY WITH NIROGACESTAT AND A BCMA-DIRECTED THERAPY AND USES THEREOF” (SpringWorks Therapeutics Inc., priority 2020, published 2023).

The nature of this data set: physchem. The conditions noted are these: organic solvent or mixture, thermodynamic from solid. As to the method:
Weighed samples of material were treated with aliquots of specified solvents at ambient temperature. Samples were typically sonicated between additions to facilitate dissolution. Complete dissolution was observed through visual inspection. Solubility was calculated based on the total amount of solvent added to achieve complete dissolution and may be greater than the value reported due to incremental solvent addition and the inherent kinetics of dissolution. If dissolution was not observed, values are reported as “less than”. If dissolution was observed upon the first addition of solvent, values are reported as “greater than”.

As a reminder, the solubility is how much of the substance goes into solution per volume. As for `Br.Br.CCC[C@H](N[C@H]1CCc2cc(F)cc(F)c2C1)C(=O)Nc1cn(C(C)(C)CNCC(C)(C)C)cn1` [nirogacestat dihydrobromide, (S)-2-(((S)-6,8-difluoro-1,2,3,4-tetrahydronaphthalen-2-yl)amino)-N-(1-(2-methyl-1-(neopentylamino)propan-2-yl)-1H-imidazol-4-yl)pentanamide], the solubility is less than 1000 µg/mL.
